{
  "source": "patent US11369498B2",
  "about": "“Stent and stent delivery system with improved deliverability” (MT Acquisition Holdings LLC, priority 2010, dated 2022)",
  "origin": "cited, not measured here",
  "conditions": "25 C.",
  "data": [
    {"smiles": "[Cl-].[Na+]", "note": "[NaCl]", "values": [
      {"measurement": "Water sol", "value": 35.7, "unit": "g/100 g"}
    ]}
  ]
}
